Structures are written as SMILES. A value given as a limit tells only on which side of the number the result lay.

Experiment [1] deals with T1, hA2a (Homo sapiens (Human), UniProt P29274). Briefly: Radioligand binding to hA2a membrane ([3H]-CGS21680). Conditions: [3H]-CGS21680, 90 min at 25° C., read-out: Binding Affinity (IC50 nM) hA2a. The procedure: (§1) Binding affinity and specificities of the compounds against different subtype of human adenosine receptors (hA1, hA2A, hA2B and hA3) were characterized with cell membrane chromatography binding analysis.
T1 sequence (P29274 whole entry): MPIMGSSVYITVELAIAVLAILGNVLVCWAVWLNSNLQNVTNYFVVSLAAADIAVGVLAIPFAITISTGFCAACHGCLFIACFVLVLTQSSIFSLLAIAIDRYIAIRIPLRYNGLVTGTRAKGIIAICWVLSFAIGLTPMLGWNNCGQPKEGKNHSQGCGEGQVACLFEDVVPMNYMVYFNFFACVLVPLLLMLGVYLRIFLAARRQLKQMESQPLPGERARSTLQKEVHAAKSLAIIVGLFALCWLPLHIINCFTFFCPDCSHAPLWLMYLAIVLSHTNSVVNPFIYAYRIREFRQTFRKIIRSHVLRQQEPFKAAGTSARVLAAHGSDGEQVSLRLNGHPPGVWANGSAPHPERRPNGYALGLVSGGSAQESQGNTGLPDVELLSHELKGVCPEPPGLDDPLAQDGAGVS
The compounds at different concentrations were incubate with hA2a membrane (from PerkinElmer) and [^3H]-CGS21680 for 90 min at 25° C., meanwhile 100 μL 0.5% PEI solution was added into […]-96 GF/B filter plate for 60 min at 4° C., then […]-96 GF/B filter plate was washed twice with 50 ml wash buffer, the membrane mix was transferred into […]-96 GF/B filter plate, and the filter plate was washed 4 times before incubated at 55° C. for 10 min. At last, […] ULTIMA GOLD was added into each well, and CPM was read by TopCount.
(§2) The empty boxes in the tables below indicate data not available.

The target in experiment [2] is T1, hA2a. Kind of experiment: cAMP inhibition assay in hA2a/CHO cells. The class given is cell-based. The settings on record: adenosine stimulation, read-out: cAMP & FLIPR IC50 (nM) hA2a. A digest of the protocol:
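CHO cells expressing human A2a, human A2b or mouse A2a, 5×10^3 cells/well, pre-incubated with compound 30 min at 37 °C, then stimulated with […] adenosine 30 min at 37 °C. cAMP read after 60 min room-temperature incubation with detection reagent.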

In experiment [3] the target is T2, hA1 (Homo sapiens (Human), UniProt P30542). Kind of experiment: FLIPR inhibition assay in hADORA1/CHO (hA1 expressing) cells. The class given is cell-based. Conditions: hADORA1/CHO cells, FLIPR calcium, adenosine stimulation; read-out: cAMP & FLIPR IC50 (nM) hA1. The essentials: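 CHO cells expressing human A1 were plated at 1×10^4 cells/well the day before, then loaded with FLIPR Calcium 5 dye for 60 min at 37 °C, 5% CO2. Compounds were added at several concentrations for 400 s before stimulation with […] adenosine. The calcium signal was recorded by FLIPR.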
T2 sequence (P30542 whole entry): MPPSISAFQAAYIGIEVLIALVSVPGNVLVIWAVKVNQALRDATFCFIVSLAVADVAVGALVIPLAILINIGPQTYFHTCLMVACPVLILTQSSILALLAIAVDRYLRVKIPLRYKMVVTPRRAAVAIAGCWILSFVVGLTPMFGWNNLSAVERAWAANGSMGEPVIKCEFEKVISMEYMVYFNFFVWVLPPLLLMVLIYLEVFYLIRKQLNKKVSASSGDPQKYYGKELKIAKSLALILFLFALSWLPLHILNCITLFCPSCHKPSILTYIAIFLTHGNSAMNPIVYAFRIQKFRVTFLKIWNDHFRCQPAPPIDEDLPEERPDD

For experiment [4], the target named is T2, hA1. Briefly: Radioligand binding to hA1 membrane ([3H]-DPCPX). Conditions: 50 min at 25° C., read-out: Binding Affinity (IC50 nM) hA1. The procedure: as §1
The compounds at different concentrations were incubate with hA1 membrane (from PerkinElmer) and [^3H]-8-Cyclopentyl-1,3-dipropylxanthine (DPCPX) for 50 min at 25° C., meanwhile 100 μL 0.5% PEI solution was added into […]-96 GF/B filter plate for 60 min at 4° C., then […]-96 GF/B filter plate was washed twice with 50 ml wash buffer, the membrane mix was transferred into […]-96 GF/B filter plate, and the filter plate was washed 4 times before incubated at 55° C. for 10 min. At last, […] ULTIMA GOLD was added into each well, and CPM was read by TopCount.
as §2

Another experiment addresses hA2b (Homo sapiens (Human), UniProt P29275). Kind of experiment: cAMP inhibition assay in hA2b/CHO cells. Conditions: adenosine stimulation, read-out: cAMP & FLIPR IC50 (nM) hA2b. It counts as cell-based. On the procedure: (§3) hA2a/CHO, hA2b/CHO and mA2a/CHO (Genscript) were plated at 5×10^3 cells/well into 384-well polystyrene plates at the day of experiment. Compounds were pre-incubated with cells for 30 min at 37° C., 5% CO2. Then […] adenosine was added to the cells and incubated for 30 min at 37° C., 5% CO2. Detection reagent (CISBIO) was added and the plates were incubated for 60 min at room temperature. The signal was captured by Envision.

The next experiment concerns the target mA2a (Mus musculus (Mouse), UniProt Q60613). Briefly: cAMP inhibition assay in mA2a/CHO cells. The class given is cell-based. The settings on record: adenosine stimulation, read-out: cAMP & FLIPR IC50 (nM) mA2a. On the procedure: as §3

Chain of mA2a (Q60613 whole entry): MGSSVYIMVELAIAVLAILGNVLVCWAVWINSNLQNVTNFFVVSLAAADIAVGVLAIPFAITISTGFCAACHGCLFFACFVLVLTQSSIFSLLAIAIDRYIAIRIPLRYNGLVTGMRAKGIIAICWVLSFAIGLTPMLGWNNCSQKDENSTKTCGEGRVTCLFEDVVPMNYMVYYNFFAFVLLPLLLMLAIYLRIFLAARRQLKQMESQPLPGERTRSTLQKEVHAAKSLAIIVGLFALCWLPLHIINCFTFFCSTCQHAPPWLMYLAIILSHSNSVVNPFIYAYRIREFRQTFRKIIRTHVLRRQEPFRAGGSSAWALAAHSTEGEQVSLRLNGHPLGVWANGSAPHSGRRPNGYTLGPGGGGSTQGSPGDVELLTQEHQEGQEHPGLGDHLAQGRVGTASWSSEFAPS
Chain of hA2b (P29275 whole entry): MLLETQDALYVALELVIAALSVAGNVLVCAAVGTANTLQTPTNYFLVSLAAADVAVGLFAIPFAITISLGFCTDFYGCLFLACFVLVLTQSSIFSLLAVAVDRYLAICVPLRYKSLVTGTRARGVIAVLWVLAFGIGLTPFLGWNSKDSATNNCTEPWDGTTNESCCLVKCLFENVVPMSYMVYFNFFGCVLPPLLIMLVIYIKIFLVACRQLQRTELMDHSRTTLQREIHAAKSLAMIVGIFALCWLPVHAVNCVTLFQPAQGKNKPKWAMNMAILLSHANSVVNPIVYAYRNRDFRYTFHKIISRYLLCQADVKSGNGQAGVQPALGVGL

Take `Cn1cc(-c2c(-c3ncco3)nc(N)n3nc(Cc4c(F)cccc4F)nc23)ccc1=O` [Example 22, 5-(5-amino-2-(2,6-difluorobenzyl)-7-(oxazol-2-yl)-[1,2,4]triazolo[1,5-c]pyrimidin-8-yl)-1-methylpyridin-2(1H)-one]: the IC50 stood at 12 nM at hA2a [1]; 8.2 nM at hA2a [2]; 25 nM at hA1 [3]; 6.8 nM at hA1 [4]; 168 nM at hA2b; 12 nM at mA2a.
As for `Cn1cc(-c2c(-n3nccn3)nc(N)n3nc(Cc4c(F)cccc4F)nc23)ccc1=O` [Example 25, 5-[5-amino-2-[(2,6-difluorophenyl)methyl]-7-(2H-1,2,3-triazol-2-yl)-[1,2,4]triazolo[1,5-c]pyrimidin-8-yl]-1-methyl-1,2-dihydropyridin-2-one], the IC50 on hA2a [1] stood at 1.4 nM; at hA2a [2] it was 20 nM; on hA1 [3], 21 nM; at hA1 [4], 7.9 nM; at hA2b it was 582 nM; on mA2a it was 30 nM.
In the case of `Nc1nc(-c2ncco2)c(-c2ccc3nccn3c2)c2nc(Cc3ncccc3F)nn12` [Example 31, 2-((3-fluoropyridin-2-yl)methyl)-8-(imidazo[1,2-a]pyridin-6-yl)-7-(oxazol-2-yl)-[1,2,4]triazolo[1,5-c]pyrimidin-5-amine], the half-maximal inhibitory concentration (IC50) at hA2a [1] came out at 3 nM; on hA2a [2], 14 nM; on hA1 [3] it was 188 nM; on hA1 [4] it was 137 nM; on hA2b, 80 nM; at mA2a, 51 nM.
As for `Nc1nc(-c2ccc(F)cc2)c(-c2ccc3nccn3c2)c2nc(Cc3ncccc3F)nn12` [Example 32, 7-(4-fluorophenyl)-2-((3-fluoropyridin-2-yl)methyl)-8-(imidazo[1,2-a]pyridin-6-yl)-[1,2,4]triazolo [1,5-c]pyrimidin-5-amine], the IC50 at hA2a [1] was found to be 5.5 nM; at hA2a [2] it was 0.9 nM; on hA1 [3], 28 nM; at hA1 [4], 3.4 nM; on hA2b it was 19 nM; on mA2a, 5.4 nM.
As for `Nc1cccc(Cc2nc3c(-c4ccc5nccn5c4)c(-c4ccc(F)cc4)nc(N)n3n2)n1` [Example 37, 2-((6-aminopyridin-2-yl)methyl)-7-(4-fluorophenyl)-8-(imidazo[1,2-a]pyridin-6-yl)-[1,2,4]triazolo[1,5-c]pyrimidin-5-amine], the IC50 came out at 6.3 nM at hA2a [1]; 1.8 nM on hA2a [2]; 12 nM on hA1 [3]; 4 nM on hA1 [4]; 12 nM on hA2b; 7.3 nM on mA2a.
Turning to `Cn1cc(-c2c(-c3ccc(C(F)F)cc3)nc(N)n3nc(Cc4ncccc4F)nc23)ccc1=O` [Example 41, 5-(5-amino-7-(4-(difluoromethyl)phenyl)-2-((3-fluoropyridin-2-yl)methyl)-[1,2,4]triazolo[1,5-c]pyrimidin-8-yl)-1-methylpyridin-2(1H)-one], the IC50 at hA2a [1] turned out to be 3.4 nM; at hA2a [2] it was 70 nM; on hA1 [3] it was 17 nM; on hA1 [4] it was 2.2 nM; on hA2b, 259 nM; at mA2a, 189 nM.
For `Cc1cnc2ccc(-c3c(N4CCOCC4)nc(N)n4nc(Cc5ncccc5F)nc34)cn12` [Example 102, 2-((3-fluoropyridin-2-yl)methyl)-8-(3-methylimidazo[l,2-a]pyridin-6-yl)-7-morpholino-[l,2,4]tri azolo[1,5-c]pyrimidin-5-amine], the IC50 is 2.6 nM at hA2a [2], 27.2 nM on hA1 [3], 121 nM on hA2b and 11.2 nM on mA2a.
As to `Cc1cnc2ccc(-c3c(N4CCC5(COC5)C4)nc(N)n4nc(Cc5ncccc5F)nc34)cn12` [Example 110, 2-((3-fluoropyridin-2-yl)methyl)-8-(3-methylimidazo[1,2-a]pyridin-6-yl)-7-(2-oxa-6-azaspiro[3.4]octan-6-yl)-[l,2,4]triazolo[l,5-c]pyrimidin-5-amine], the IC50 was 795 nM on hA2a [2], 85.9 nM at hA1 [3], over 10000 nM on hA2b and 7190 nM on mA2a.
For `COCCc1nc2c(-c3ccc4ncc(C)n4c3)c(-c3ccc(F)cc3)nc(N)n2n1` [Example 114, 7-(4-fluorophenyl)-2-(2-methoxyethyl)-8-(3-methylimidazo[1,2-a]pyridin-6-yl)-[1,2,4]triazolo[1,5-c]pyrimidin-5-amine] the same measures were 0.2 nM, 5.7 nM, 40.9 nM and 0.4 nM.
For `Cc1cnc2ccc(-c3c(-n4ccc(F)n4)nc(N)n4nc(Cc5ncccc5F)nc34)cn12` [Example 116, 7-(3-fluoro-1H-pyrazol-1-yl)-2-((3-fluoropyridin-2-yl)methyl)-8-(3-methylimidazo[l,2-a]pyridin-6-yl)-[l,2,4]triazolo[l,5-c]pyrimidin-5-amine] the same measures were 0.2 nM, 7.9 nM, 12.2 nM and 0.2 nM.
For `Cc1cnc2ccc(-c3c(-n4cc(F)cn4)nc(N)n4nc(Cc5ncccc5F)nc34)cn12` [Example 117, 7-(4-fluoro-1H-pyrazol-1-yl)-2-((3-fluoropyridin-2-yl)methyl)-8-(3-methylimidazo[l,2-a]pyridin-6-yl)-[1,2,4]triazolo[1,5-c]pyrimidin-5-amine] the same measures were 0.2 nM, 9.7 nM, 16.4 nM and 0.5 nM.
`Cc1cnc2ccc(-c3c(-c4ccc(F)cc4)nc(N)n4nc(CCN(C)C)nc34)cn12` [Example 120, 2-(2-(dimethylamino)ethyl)-7-(4-fluorophenyl)-8-(3-methylimidazo[l,2-a]pyridin-6-yl)-[l,2,4]tria zolo[1,5-c]pyrimidin-5-amine]: the IC50 amounted to 0.6 nM at hA2a [2], 66.7 nM on hA1 [3], 146 nM at hA2b and 9.5 nM on mA2a.
Consider `Cc1cnc2ccc(-c3c(-c4ccc(F)cc4)nc(N)n4nc(C[C@@H]5CCCN5C)nc34)cn12` [Example 122, (S)-7-(4-fluorophenyl)-8-(3-methylimidazo[1,2-a]pyridin-6-yl)-2-((l-methylpyrrolidin-2-yl)methyl)-[1,2,4]triazolo[1,5-c]pyrimidin-5-amine], for which the IC50 at hA2a [2] was 0.3 nM; at hA1 [3], 67.7 nM; at hA2b, 93.5 nM; on mA2a, 2.6 nM.
The like results for `Cc1cnc2ccc(-c3c(N4CCCC4)nc(N)n4nc(Cc5c(F)cccc5F)nc34)cn12` [Example 123, 2-(2,6-difluorobenzyl)-8-(3-methylimidazo[l,2-a]pyridin-6-yl)-7-(pyrrolidin-1-yl)-[1,2,4]triazolo [1,5-c]pyrimidin-5-amine] were, in that order, 0.4 nM, 42.4 nM, 80.5 nM and 16.5 nM.
The like results for `Cc1cnc2ccc(-c3c(N4CCC4)nc(N)n4nc(Cc5c(F)cccc5F)nc34)cn12` [Example 124, 7-(azetidin-l-yl)-2-(2,6-difluorobenzyl)-8-(3-methylimidazo[1,2-a]pyridin-6-yl)-[1,2,4]triazolo [1,5-c]pyrimidin-5-amine] were, in that order, 0.1 nM, 16 nM, 23.3 nM and 3.9 nM.

Broadly, the IC50 is the concentration at which inhibition is half-maximal.

Source of the values: patent publication US10858365B2, “Triazolo-pyrimidine compounds and uses thereof” (Dizal (Jiangsu) Pharmaceutical Co., Ltd., priority 2018, dated 2020).
